What was measured:
Type in all cases: biochemical
[1] = target: CYP2E1 (Homo sapiens, UniProt P05181); test: probe substrate turnover, UHPLC
[2] = target: CYP3A4 (Homo sapiens, UniProt P08684); test: probe substrate turnover, UHPLC
[3] = target: T1, CYP2C9 (Homo sapiens, UniProt P11712); test: inhibition kinetics, nonlinear fit, Dixon plot, UHPLC
[4] = target: T2, UGT2B7 (Homo sapiens, UniProt P16662); test: probe substrate turnover, UHPLC
T2 sequence (P16662 24-529): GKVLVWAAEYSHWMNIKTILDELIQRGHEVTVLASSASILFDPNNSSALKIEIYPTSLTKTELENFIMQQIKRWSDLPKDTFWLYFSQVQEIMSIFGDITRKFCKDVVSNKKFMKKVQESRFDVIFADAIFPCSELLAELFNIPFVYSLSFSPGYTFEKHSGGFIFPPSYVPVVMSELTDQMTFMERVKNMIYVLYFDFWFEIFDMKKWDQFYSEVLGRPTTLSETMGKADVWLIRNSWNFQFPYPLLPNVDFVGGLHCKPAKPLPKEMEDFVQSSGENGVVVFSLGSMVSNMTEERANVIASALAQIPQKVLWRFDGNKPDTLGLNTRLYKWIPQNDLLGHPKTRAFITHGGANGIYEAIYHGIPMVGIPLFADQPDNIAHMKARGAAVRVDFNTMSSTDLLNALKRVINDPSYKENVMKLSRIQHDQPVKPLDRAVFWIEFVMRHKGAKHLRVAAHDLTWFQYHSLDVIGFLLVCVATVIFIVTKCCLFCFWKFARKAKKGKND

[5] = target: T3, CYP2B6 (Homo sapiens, UniProt P20813); test: probe substrate turnover, UHPLC
T3 sequence (P20813 1-491): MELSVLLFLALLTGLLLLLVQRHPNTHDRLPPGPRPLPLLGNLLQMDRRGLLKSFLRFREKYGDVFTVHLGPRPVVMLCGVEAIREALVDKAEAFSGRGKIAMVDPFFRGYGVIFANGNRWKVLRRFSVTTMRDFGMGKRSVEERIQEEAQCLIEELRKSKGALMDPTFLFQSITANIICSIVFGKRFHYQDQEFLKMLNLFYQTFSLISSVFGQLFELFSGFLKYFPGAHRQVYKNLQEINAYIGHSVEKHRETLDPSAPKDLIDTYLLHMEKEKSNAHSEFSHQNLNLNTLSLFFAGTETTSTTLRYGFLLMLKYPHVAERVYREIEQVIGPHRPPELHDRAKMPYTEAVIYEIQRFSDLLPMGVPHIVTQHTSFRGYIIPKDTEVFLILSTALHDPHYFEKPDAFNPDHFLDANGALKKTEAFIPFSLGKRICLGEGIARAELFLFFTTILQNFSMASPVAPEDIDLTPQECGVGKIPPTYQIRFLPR

[6] = target: T4, CYP2C19 (Homo sapiens, UniProt P33261); test: probe substrate turnover, UHPLC
T4 sequence (P33261 whole entry): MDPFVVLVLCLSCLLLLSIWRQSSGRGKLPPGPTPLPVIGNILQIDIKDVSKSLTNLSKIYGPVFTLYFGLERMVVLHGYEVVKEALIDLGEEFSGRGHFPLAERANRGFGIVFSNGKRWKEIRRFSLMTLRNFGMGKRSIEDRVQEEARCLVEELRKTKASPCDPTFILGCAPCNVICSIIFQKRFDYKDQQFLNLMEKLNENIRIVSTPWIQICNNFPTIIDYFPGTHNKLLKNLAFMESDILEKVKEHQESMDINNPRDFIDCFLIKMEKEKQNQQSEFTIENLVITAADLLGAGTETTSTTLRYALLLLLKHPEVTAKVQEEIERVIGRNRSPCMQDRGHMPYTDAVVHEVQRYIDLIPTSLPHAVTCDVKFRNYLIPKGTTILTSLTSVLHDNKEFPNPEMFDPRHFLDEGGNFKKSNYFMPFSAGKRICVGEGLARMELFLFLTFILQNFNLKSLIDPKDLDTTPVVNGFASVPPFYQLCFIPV

[7] = target: T1, CYP2C9; test: probe substrate turnover, UHPLC
[8] = target: T2, UGT2B7; test: inhibition kinetics, nonlinear fit, Dixon plot, UHPLC
[9] = target: T3, CYP2B6; test: as above
[10] = target: T5, CYP1A2 (Homo sapiens, UniProt P05177); test: probe substrate turnover, UHPLC
T5 sequence (P05177 2-516): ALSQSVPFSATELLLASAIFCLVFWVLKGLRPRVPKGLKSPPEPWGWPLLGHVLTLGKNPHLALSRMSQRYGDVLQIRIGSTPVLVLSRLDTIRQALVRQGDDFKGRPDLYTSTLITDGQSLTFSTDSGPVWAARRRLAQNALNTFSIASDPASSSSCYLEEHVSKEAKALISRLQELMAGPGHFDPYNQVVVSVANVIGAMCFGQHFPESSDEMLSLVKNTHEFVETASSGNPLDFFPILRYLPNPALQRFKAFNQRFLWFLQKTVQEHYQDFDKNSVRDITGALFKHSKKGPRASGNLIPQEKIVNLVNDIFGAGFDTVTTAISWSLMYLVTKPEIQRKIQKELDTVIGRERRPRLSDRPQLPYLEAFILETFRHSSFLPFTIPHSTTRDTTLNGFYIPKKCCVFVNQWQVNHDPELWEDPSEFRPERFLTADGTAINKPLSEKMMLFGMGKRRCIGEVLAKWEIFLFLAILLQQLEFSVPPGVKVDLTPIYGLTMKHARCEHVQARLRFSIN

[11] = target: T6, CYP2C8 (Homo sapiens, UniProt P10632); test: probe substrate turnover, UHPLC
T6 sequence (P10632 1-490): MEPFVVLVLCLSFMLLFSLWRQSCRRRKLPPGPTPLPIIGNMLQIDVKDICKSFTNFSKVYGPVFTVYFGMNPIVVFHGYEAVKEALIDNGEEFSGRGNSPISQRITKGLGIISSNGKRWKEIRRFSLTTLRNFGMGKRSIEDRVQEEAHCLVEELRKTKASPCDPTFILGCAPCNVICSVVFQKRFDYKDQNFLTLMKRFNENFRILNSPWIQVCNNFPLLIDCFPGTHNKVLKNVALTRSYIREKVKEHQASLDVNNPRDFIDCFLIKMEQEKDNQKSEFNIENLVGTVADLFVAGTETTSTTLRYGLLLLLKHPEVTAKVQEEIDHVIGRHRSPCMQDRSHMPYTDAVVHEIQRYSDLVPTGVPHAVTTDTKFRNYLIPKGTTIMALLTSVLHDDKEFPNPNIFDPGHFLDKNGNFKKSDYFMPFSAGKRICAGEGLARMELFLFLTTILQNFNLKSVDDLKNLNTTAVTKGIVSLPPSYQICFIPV

[12] = target: T7, UGT1A1 (Homo sapiens, UniProt P22309); test: probe substrate turnover, UHPLC
T7 sequence (P22309 26-533): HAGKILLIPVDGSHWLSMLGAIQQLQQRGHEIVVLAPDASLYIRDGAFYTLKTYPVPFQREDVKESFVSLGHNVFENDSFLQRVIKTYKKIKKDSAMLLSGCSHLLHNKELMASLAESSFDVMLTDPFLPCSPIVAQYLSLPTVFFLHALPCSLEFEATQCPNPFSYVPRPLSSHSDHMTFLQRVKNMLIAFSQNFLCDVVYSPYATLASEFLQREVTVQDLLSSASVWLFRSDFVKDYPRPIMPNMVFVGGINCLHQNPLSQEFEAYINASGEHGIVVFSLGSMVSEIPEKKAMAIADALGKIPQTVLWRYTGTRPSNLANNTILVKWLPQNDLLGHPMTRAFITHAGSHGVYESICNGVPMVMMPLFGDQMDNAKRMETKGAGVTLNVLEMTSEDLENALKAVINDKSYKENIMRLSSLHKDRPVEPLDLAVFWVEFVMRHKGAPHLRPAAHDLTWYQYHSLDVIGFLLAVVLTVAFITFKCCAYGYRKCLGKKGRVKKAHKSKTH

[13] = target: T8, UGT1A9 (Homo sapiens, UniProt O60656); test: probe substrate turnover, UHPLC
T8 sequence (O60656 26-530): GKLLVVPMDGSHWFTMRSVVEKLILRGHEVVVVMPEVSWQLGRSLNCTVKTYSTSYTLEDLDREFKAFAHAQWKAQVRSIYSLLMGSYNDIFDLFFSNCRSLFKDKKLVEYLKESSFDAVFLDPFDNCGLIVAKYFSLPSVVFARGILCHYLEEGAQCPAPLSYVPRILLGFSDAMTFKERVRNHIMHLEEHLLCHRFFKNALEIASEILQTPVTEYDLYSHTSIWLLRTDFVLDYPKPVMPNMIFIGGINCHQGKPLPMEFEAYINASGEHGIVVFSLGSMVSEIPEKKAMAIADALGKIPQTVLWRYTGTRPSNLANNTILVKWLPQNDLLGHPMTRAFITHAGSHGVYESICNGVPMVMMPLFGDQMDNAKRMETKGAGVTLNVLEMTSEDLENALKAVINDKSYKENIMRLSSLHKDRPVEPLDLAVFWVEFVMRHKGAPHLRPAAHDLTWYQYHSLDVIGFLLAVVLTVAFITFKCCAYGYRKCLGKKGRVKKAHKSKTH

[14] = target: T8, UGT1A9; test: inhibition kinetics, nonlinear fit, Dixon plot, UHPLC
[15] = target: T4, CYP2C19; test: as above

T1 sequence (P11712 whole entry): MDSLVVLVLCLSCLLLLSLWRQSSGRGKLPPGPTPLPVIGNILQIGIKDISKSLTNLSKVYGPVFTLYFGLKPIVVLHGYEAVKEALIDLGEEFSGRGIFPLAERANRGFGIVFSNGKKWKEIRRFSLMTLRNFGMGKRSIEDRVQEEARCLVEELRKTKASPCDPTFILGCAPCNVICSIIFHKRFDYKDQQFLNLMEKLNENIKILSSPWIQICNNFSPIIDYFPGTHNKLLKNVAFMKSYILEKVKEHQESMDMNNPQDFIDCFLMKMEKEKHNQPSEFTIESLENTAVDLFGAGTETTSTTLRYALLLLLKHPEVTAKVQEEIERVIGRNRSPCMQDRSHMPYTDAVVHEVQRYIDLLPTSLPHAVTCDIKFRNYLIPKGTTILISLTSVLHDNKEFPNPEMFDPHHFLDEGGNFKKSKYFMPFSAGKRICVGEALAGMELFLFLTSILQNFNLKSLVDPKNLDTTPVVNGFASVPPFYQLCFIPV
CYP2E1, sequence (P05181 whole entry): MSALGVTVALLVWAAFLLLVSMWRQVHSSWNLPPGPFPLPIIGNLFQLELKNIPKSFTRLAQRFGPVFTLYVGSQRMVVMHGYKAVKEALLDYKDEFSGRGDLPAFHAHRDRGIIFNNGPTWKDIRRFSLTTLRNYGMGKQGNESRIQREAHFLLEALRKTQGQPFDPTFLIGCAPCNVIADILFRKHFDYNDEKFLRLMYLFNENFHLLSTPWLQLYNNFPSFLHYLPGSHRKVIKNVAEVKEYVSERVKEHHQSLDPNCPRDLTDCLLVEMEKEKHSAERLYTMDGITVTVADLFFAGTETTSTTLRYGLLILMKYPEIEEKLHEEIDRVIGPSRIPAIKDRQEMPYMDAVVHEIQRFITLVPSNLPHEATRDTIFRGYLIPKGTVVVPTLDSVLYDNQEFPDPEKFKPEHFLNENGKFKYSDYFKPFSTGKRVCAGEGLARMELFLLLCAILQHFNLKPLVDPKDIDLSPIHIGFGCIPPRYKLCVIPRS
CYP3A4, sequence (P08684 2-503): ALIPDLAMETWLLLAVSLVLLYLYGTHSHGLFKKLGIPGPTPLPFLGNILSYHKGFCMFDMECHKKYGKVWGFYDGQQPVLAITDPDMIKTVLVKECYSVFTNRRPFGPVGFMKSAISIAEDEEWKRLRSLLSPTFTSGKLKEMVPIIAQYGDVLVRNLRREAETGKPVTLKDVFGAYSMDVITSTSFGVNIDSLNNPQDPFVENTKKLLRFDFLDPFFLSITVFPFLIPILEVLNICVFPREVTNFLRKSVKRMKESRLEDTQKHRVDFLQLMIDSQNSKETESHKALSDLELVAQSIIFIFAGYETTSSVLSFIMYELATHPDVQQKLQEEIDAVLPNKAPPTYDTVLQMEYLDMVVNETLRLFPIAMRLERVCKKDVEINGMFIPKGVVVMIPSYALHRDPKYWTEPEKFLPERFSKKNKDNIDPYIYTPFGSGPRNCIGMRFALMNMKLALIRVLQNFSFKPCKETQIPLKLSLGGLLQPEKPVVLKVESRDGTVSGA

COc1cc2c(cc1CC=C(C)C)C(=O)C[C@@H](c1ccc(O)cc1)O2 [bavachinin]
% residual activity at 100 μM [1]: 51.5%
% residual activity at 100 μM [2]: 24.7%
Ki [3]: 190 ± 30 nM
IC50 [4]: 2530 ± 620 nM
IC50 [5]: 1680 ± 630 nM
IC50 [6]: 1380 ± 530 nM
IC50 [7]: 280 ± 70 nM
Ki [8]: 1130 ± 120 nM
Ki [9]: 1510 ± 120 nM
% residual activity at 100 μM [10]: 91.5%
% residual activity at 100 μM [11]: 21.5%
IC50 [12]: 20700 ± 10600 nM
IC50 [13]: 2340 ± 610 nM
Ki [14]: 370 ± 40 nM
Ki [15]: 1860 ± 160 nM

From paper PMC9056855 (RSC Advances, 2020)
